Data taken from US8168651B2, “Protein kinase modulators” (Cylene Pharmaceuticals, Inc., priority 2008, dated 2012).

Key:
Assay in all cases: Standardized radiometric kinase assays, percentage of activity at 0.5 μM;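 also: Read-out is ³³P-labelled substrate protein phosphorylated by each kinase, captured on filters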
[1] = target: each individual kinase of the panel (Homo sapiens, UniProt O00418); conditions: for % Activity: eEF-2K(h)
[2] = target: each individual kinase of the panel (Homo sapiens, UniProt O15111); conditions: for % Activity: IKKα(h)
[3] = target: each individual kinase of the panel (Homo sapiens, UniProt O15530); conditions: for % Activity: PDK1(h)
[4] = target: each individual kinase of the panel (Homo sapiens, UniProt O43293); conditions: for % Activity: ZIPK(h)
[5] = target: each individual kinase of the panel (Homo sapiens, UniProt O60285); conditions: for % Activity: ARK5(h)
[6] = target: each individual kinase of the panel (Homo sapiens, UniProt O75676); conditions: for % Activity: MSK2(h)
[7] = target: each individual kinase of the panel (Homo sapiens, UniProt P00533, T790M); conditions: for % Activity: EGFR(T790M)(h)
[8] = target: each individual kinase of the panel (Homo sapiens, UniProt P04629); conditions: for % Activity: TrkA(h)
Chain of each individual kinase of the panel (Homo sapiens, UniProt P04629) (P04629 33-796 limits assumed): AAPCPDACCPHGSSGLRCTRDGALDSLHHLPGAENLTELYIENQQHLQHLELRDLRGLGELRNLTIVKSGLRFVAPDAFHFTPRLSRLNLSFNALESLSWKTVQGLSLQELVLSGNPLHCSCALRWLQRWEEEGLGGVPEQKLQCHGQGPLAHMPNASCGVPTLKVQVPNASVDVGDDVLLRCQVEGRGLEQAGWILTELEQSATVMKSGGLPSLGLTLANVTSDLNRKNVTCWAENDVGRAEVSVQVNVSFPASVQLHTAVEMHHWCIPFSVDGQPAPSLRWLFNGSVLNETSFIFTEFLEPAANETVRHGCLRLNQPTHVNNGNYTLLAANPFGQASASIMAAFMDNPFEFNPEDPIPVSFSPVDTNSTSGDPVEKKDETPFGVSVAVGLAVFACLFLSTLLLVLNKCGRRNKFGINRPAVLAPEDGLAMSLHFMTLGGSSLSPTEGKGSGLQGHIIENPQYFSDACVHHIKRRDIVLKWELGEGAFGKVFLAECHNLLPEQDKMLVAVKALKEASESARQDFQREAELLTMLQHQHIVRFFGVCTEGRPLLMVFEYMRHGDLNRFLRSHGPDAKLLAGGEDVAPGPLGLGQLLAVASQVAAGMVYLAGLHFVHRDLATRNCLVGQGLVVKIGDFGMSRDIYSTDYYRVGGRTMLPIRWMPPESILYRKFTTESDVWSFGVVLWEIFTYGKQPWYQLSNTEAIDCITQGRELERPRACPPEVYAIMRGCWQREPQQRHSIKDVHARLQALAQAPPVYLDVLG

[9] = target: each individual kinase of the panel (Homo sapiens, UniProt P06213); conditions: for % Activity: IR(h)
[10] = target: each individual kinase of the panel (Homo sapiens, UniProt P06239); conditions: for % Activity: Lck(h)
Chain of each individual kinase of the panel (Homo sapiens, UniProt P06239) (P06239 2-509 limits assumed): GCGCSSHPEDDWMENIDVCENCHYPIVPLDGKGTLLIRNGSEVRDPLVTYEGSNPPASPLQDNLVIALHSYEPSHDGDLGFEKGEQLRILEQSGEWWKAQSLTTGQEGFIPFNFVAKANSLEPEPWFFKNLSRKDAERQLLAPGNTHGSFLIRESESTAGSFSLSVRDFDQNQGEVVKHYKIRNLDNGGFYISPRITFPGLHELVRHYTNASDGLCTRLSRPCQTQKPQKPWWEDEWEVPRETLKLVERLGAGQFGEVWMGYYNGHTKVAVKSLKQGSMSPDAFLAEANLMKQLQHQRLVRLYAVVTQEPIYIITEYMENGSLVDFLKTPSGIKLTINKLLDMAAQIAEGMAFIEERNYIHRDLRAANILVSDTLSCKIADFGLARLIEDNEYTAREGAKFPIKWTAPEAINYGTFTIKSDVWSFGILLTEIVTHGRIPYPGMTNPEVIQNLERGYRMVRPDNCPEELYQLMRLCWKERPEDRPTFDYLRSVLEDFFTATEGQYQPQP

[11] = target: each individual kinase of the panel (Homo sapiens, UniProt P08069); conditions: for % Activity: IGF-1R(h)
[12] = target: each individual kinase of the panel (Homo sapiens, UniProt P10721, D816H); conditions: for % Activity: cKit(D816H)(h)
Chain of each individual kinase of the panel (Homo sapiens, UniProt P10721, D816H) (P10721 26-976 D816H limits assumed): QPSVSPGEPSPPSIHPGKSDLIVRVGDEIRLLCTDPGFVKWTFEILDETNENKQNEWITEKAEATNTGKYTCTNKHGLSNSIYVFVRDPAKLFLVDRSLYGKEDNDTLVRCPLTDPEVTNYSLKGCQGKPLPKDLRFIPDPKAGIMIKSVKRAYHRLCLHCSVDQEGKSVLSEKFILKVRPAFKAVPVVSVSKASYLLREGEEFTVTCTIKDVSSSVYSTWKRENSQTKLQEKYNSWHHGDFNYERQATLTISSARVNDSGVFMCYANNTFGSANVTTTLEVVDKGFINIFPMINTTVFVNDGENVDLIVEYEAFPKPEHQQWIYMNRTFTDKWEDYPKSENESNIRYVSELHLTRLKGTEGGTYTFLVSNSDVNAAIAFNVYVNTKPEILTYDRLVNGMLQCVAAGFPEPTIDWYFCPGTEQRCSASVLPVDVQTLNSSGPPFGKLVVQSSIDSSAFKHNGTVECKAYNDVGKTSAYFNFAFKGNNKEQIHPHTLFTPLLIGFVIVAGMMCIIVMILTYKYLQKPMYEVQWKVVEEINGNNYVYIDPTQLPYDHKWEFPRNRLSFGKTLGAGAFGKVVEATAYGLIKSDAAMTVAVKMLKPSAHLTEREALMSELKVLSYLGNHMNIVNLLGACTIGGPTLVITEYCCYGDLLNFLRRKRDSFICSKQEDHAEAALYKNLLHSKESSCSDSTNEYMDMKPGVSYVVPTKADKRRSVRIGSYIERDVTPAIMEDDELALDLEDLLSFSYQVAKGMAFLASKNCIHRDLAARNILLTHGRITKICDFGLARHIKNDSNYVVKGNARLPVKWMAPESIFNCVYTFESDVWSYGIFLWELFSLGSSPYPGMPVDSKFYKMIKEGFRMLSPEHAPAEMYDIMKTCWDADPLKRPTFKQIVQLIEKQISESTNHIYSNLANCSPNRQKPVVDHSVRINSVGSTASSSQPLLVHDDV

[13] = target: each individual kinase of the panel (Homo sapiens, UniProt P10721, V560G); conditions: for % Activity: cKit(V560G)(h)
Chain of each individual kinase of the panel (Homo sapiens, UniProt P10721, V560G) (P10721 26-976 V560G limits assumed): as the sequence (P10721 26-976 D816H limits assumed) above, with V535G, H791D counted along it

[14] = target: each individual kinase of the panel (Homo sapiens, UniProt P21802); conditions: for % Activity: FGFR2(h)
[15] = target: each individual kinase of the panel (Homo sapiens, UniProt P24941); conditions: for % Activity: CDK2/cyclinA(h)
[16] = target: each individual kinase of the panel (Homo sapiens, UniProt P50613); conditions: for % Activity: CDK7/cyclinH/MAT1(h)
Chain of each individual kinase of the panel (Homo sapiens, UniProt P50613) (P50613 2-346 limits assumed): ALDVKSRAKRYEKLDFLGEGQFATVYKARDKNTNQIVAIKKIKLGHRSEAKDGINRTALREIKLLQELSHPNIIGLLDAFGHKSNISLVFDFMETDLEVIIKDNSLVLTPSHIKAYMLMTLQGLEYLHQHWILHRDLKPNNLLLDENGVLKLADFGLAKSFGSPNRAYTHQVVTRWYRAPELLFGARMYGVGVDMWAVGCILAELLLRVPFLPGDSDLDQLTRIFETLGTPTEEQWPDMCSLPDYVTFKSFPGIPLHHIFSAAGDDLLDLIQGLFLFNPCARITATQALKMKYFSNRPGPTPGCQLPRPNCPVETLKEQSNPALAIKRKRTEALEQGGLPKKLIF

[17] = target: each individual kinase of the panel (Homo sapiens, UniProt P78368); conditions: for % Activity: CK1γ2(h)
[18] = target: each individual kinase of the panel (Homo sapiens, UniProt Q02750); conditions: for % Activity: MEK1(h)
[19] = target: each individual kinase of the panel (Homo sapiens, UniProt Q02763); conditions: for % Activity: Tie2(h)
Chain of each individual kinase of the panel (Homo sapiens, UniProt Q02763) (Q02763 23-1124 limits assumed): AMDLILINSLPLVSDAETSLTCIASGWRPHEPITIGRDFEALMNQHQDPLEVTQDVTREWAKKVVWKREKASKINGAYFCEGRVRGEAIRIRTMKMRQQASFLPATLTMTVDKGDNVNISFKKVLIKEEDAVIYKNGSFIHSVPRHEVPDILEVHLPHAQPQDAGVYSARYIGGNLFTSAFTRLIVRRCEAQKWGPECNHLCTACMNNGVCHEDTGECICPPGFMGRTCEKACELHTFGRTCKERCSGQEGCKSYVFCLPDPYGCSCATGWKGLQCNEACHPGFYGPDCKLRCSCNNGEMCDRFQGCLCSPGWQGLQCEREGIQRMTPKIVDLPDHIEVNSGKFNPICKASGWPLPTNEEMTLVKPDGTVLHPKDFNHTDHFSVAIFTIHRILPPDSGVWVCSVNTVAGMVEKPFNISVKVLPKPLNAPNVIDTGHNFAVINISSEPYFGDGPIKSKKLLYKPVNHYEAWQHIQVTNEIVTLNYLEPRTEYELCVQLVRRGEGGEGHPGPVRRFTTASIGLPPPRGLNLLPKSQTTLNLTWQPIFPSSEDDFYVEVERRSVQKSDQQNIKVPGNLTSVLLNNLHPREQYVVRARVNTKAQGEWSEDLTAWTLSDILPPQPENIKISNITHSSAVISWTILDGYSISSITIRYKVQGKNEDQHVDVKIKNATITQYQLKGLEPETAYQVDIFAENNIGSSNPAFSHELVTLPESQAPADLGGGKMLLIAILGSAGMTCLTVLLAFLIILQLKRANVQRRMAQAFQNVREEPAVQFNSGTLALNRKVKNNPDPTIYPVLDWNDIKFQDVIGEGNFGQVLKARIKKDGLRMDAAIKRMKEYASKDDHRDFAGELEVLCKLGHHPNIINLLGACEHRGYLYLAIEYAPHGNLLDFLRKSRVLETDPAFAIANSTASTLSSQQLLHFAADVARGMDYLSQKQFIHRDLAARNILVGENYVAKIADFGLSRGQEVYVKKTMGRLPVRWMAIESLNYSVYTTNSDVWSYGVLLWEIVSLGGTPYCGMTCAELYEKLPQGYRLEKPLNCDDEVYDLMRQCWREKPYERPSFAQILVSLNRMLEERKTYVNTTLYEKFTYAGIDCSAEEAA

[20] = target: each individual kinase of the panel (Homo sapiens, UniProt Q12866); conditions: for % Activity: Mer(h)
[21] = target: each individual kinase of the panel (Homo sapiens, UniProt Q13043); conditions: for % Activity: MST1(h)
[22] = target: each individual kinase of the panel (Homo sapiens, UniProt Q13976); conditions: for % Activity: PKG1α(h)
Chain of each individual kinase of the panel (Homo sapiens, UniProt Q13976) (Q13976 2-671 limits assumed): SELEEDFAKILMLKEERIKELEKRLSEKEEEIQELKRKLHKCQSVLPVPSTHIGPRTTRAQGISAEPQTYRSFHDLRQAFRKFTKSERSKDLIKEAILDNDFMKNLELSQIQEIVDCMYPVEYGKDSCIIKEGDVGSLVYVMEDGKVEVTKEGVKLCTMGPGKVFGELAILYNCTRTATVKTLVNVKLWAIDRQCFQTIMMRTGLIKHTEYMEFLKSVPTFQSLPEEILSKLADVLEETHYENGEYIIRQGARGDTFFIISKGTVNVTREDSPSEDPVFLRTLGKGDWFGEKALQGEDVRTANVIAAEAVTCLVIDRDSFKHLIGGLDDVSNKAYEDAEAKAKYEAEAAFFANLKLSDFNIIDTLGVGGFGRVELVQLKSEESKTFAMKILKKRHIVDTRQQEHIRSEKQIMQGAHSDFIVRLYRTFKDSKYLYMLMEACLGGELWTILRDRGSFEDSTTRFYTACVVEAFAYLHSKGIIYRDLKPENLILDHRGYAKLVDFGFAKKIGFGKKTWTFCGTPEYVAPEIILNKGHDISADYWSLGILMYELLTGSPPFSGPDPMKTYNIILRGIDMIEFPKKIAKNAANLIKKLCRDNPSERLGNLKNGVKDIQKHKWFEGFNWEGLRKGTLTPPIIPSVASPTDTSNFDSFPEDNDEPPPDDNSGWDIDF

[23] = target: each individual kinase of the panel (Homo sapiens, UniProt Q15349); conditions: for % Activity: Rsk3(h)
[24] = target: each individual kinase of the panel (Homo sapiens, UniProt Q86V86); conditions: for % Activity: Pim-3(h)
[25] = target: each individual kinase of the panel (Homo sapiens, UniProt Q9HBH9); conditions: for % Activity: Mnk2(h)
[26] = target: each individual kinase of the panel (Homo sapiens, UniProt Q9UK32); conditions: for % Activity: Rsk4(h)
[27] = target: each individual kinase of the panel (Homo sapiens, UniProt P07333)
[28] = target: each individual kinase of the panel (Homo sapiens, UniProt Q9H4B4)
[29] = target: each individual kinase of the panel (Homo sapiens, UniProt Q9UM73)

In the case of `Clc1ccccc1Nc1nc2c(-c3nnc[nH]3)cccc2c2cnccc12` [A], the “% Activity” value [1] is reported as 111%, the “% Activity” value [2] is reported as 108% and the “% Activity” value [3] is reported as 101%. For the same compound, the “% Activity” value [4] was 100%, the “% Activity” value [5] was 39% and the “% Activity” value [6] was 51%. For the same compound, the “% Activity” value [7] was 53%, the “% Activity” value [8] was 6% and the “% Activity” value [9] was 112%. For the same compound, the “% Activity” value [10] was 21%, the “% Activity” value [11] was 101% and the “% Activity” value [12] was 8%. The “% Activity” value [13] was 38%, the “% Activity” value [14] was 93% and the “% Activity” value [15] was 31%. The “% Activity” value [16] was 50%, the “% Activity” value [17] was 17% and the “% Activity” value [18] was 72%. The “% Activity” value [19] was 108%, the “% Activity” value [20] was 38% and the “% Activity” value [21] was 44%. For the same compound, the “% Activity” value [22] was 40%, the “% Activity” value [23] was 7% and the “% Activity” value [24] was 12%. The “% Activity” value [25] was 54% and the “% Activity” value [26] was 12%.
With `NC(=O)c1cccc2c1nc(Nc1cccc(Cl)c1)c1ccncc12` [B] the “% Activity” value [1] was 93%, the “% Activity” value [2] was 99% and the “% Activity” value [3] was 88%. For the same compound, the “% Activity” value [4] was 19%, the “% Activity” value [5] was 98% and the “% Activity” value [6] was 65%. The “% Activity” value [7] was 76%, the “% Activity” value [8] was 23% and the “% Activity” value [9] was 95%. For the same compound, the “% Activity” value [10] was 24%, the “% Activity” value ([27]; Fms(h)) was 42% and the “% Activity” value [11] was 90%. The “% Activity” value [12] was 9%, the “% Activity” value [13] was 33% and the “% Activity” value [14] was 94%. For the same compound, the “% Activity” value [15] was 17%, the “% Activity” value [16] was 17% and the “% Activity” value [17] was 63%. For the same compound, the “% Activity” value [18] was 88%, the “% Activity” value [19] was 93% and the “% Activity” value [20] was 39%. For the same compound, the “% Activity” value [21] was 80%, the “% Activity” value [22] was 34% and the “% Activity” value [23] was 40%. For the same compound, the “% Activity” value [24] was 65%, the “% Activity” value ([28]; Plk3(h)) was 102% and the “% Activity” value [25] was 33%. For the same compound, the “% Activity” value [26] was 41% and the “% Activity” value ([29]; ALK(h)) was 100%.
`C#Cc1cccc(Nc2nc3cc(C(=O)O)ccc3c3cncnc23)c1` [drawing 1135] was tested, and the “eEF−2K(h) percentage of activity” value [1] was −6%, the “IKK alpha percentage of activity” value [2] was −1% and the “PDK1 percentage of activity” value [3] was −10%. For the same compound, the “DAPK3 percentage of activity” value [4] was 88%, the “ARK5 percentage of activity” value [5] was −8% and the “MSK2 percentage of activity” value [6] was 44%. The “EGFR(T790M) percentage of activity” value [7] was 8%, the “TRKA percentage of activity” value [8] was 10% and the “INSR percentage of activity” value [9] was −5%. For the same compound, the “CSF1R percentage of activity” value [27] was −74%, the “IGF1R percentage of activity” value [11] was 27% and the “cKit(D816H) percentage of activity” value [12] was −1%. The “cKit(V560G) percentage of activity” value [13] was −11%, the “FGFR2 percentage of activity” value [14] was −7% and the “CDK2/cyclinE percentage of activity” value [15] was −13%. The “CDK7/cyclinH/MAT1 percentage of activity” value [16] was 23%, the “CK1 gamma 2 percentage of activity” value [17] was −7% and the “MEK1 percentage of activity” value [18] was −36%. The “TIE2 percentage of activity” value [19] was 1%, the “MER percentage of activity” value [20] was 54% and the “MST1 percentage of activity” value [21] was 4%. The “PRKG1 percentage of activity” value [22] was −5%, the “PIM3 percentage of activity” value [24] was 13% and the “PLK3 percentage of activity” value [28] was −6%. For the same compound, the “RPS6KA6 percentage of activity” value [26] was 22% and the “ALK percentage of activity” value [29] was −12%.
`C#Cc1cccc(Nc2nc3cc(C(=O)O)ccc3c3cnccc23)c1` [drawing 1137] was tested, and the “eEF−2K(h) percentage of activity” value [1] was −8%, the “IKK alpha percentage of activity” value [2] was 3% and the “PDK1 percentage of activity” value [3] was 8%. The “DAPK3 percentage of activity” value [4] was 87%, the “ARK5 percentage of activity” value [5] was 14% and the “MSK2 percentage of activity” value [6] was 41%. The “EGFR(T790M) percentage of activity” value [7] was 16%, the “TRKA percentage of activity” value [8] was 56% and the “INSR percentage of activity” value [9] was −7%. For the same compound, the “LCK percentage of activity” value [10] was 33%, the “CSF1R percentage of activity” value [27] was −12% and the “IGF1R percentage of activity” value [11] was −9%. For the same compound, the “cKit(D816H) percentage of activity” value [12] was 87%, the “cKit(V560G) percentage of activity” value [13] was 69% and the “FGFR2 percentage of activity” value [14] was 11%. For the same compound, the “CDK2/cyclin A percentage of activity” value [15] was 53%, the “CDK7/cyclinH/MAT1 percentage of activity” value [16] was 36% and the “CK1 gamma 2 percentage of activity” value [17] was 35%. For the same compound, the “MEK1 percentage of activity” value [18] was 4%, the “TIE2 percentage of activity” value [19] was −12% and the “MER percentage of activity” value [20] was 86%. For the same compound, the “MST1 percentage of activity” value [21] was −3%, the “PRKG1 percentage of activity” value [22] was −4% and the “RPS6KA2 percentage of activity” value [23] was 59%. For the same compound, the “PIM3 percentage of activity” value [24] was −2%, the “PLK3 percentage of activity” value [28] was −1% and the “Mnk2 percentage of activity” value [25] was −2%. For the same compound, the “RPS6KA6 percentage of activity” value [26] was 65% and the “ALK percentage of activity” value [29] was −20%.
In the case of `NC(=O)c1ccc2c(c1)nc(Nc1cccc(Cl)c1)c1ccncc12` [drawing 1138], the “eEF−2K(h) percentage of activity” value [1] is reported as −3%, the “IKK alpha percentage of activity” value [2] is reported as −13% and the “PDK1 percentage of activity” value [3] is reported as 7%. The “DAPK3 percentage of activity” value [4] was 34%, the “ARK5 percentage of activity” value [5] was 5% and the “MSK2 percentage of activity” value [6] was 9%. For the same compound, the “EGFR(T790M) percentage of activity” value [7] was 43%, the “TRKA percentage of activity” value [8] was 62% and the “INSR percentage of activity” value [9] was 0%. For the same compound, the “LCK percentage of activity” value [10] was 79%, the “CSF1R percentage of activity” value [27] was 52% and the “IGF1R percentage of activity” value [11] was −23%. For the same compound, the “cKit(D816H) percentage of activity” value [12] was 63%, the “cKit(V560G) percentage of activity” value [13] was 75% and the “FGFR2 percentage of activity” value [14] was 9%. The “CDK2/cyclin A percentage of activity” value [15] was 53%, the “CDK7/cyclinH/MAT1 percentage of activity” value [16] was 57% and the “CK1 gamma 2 percentage of activity” value [17] was −5%. The “MEK1 percentage of activity” value [18] was 8%, the “TIE2 percentage of activity” value [19] was 45% and the “MER percentage of activity” value [20] was 62%. The “MST1 percentage of activity” value [21] was 15%, the “PRKG1 percentage of activity” value [22] was 4% and the “PLK3 percentage of activity” value [28] was 0%. The “Mnk2 percentage of activity” value [25] was 32% and the “ALK percentage of activity” value [29] was −2%.
